Laboratory results as given in article PMC6386767, “Characterization of recombinant fructose-1,6-bisphosphatase gene mutations: evidence of inhibition/activation of FBPase protein by gene mutation” (Bioscience Reports, 2019).
Residue numbers refer to the chain shown, from its start.

Columns and labels:
pig kidney FBPase Y113A [1] = molecular target: T1, pig kidney FBPase Y113A (Sus scrofa, UniProt P00636, Y114A); experiment: Malachite Green kinetic assay, Y113A mutant; type: biochemical; details: for IC50: FBP substrate 10 to 50 µM
T1 construct: His6 (C); made in house; host or cells: Escherichia coli BL21 (DE3)
T1 sequence (P00636 1-338 Y114A): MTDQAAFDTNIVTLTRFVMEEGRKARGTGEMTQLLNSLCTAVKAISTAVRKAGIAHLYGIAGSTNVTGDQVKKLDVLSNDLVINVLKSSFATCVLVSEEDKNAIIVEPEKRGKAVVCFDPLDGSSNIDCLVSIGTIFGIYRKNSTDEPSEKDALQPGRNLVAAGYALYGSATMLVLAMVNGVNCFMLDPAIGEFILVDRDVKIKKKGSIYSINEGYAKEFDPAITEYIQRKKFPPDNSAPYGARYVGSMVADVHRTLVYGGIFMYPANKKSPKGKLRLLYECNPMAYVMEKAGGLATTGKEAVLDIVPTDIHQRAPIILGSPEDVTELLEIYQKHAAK
Method: (§1) For the kinetic assay, a standard curve was obtained from an ammonium molybdate Malachite Green inorganic phosphate assay (OD660 nm). The purified FBPase protein was dialyzed ×3 in 50 mM Tris buffer at pH 7.5 at 4°C. For enzyme concentration, absorbency values were recorded for all five mutant proteins using spectrophotometer readings at OD280 nm. To quantitate enzyme concentration, the enzymes were calculated based on the quantity of micrograms per microliter (µg/µl) present. Final concentration of WT and mutant enzymes was between 2.5 and 5.0 µg/µl. Using a colorimetric assay as described below, specific activity (SA) was determined. At last, all kinetic and binding assays described below were performed in 50 mM Tris pH 7.5.
(§2) Kinetic assays were performed for WT and mutant enzymes to identify functional differences between the WT enzyme and the mutants. […] Readings recorded at OD660 nm for each enzyme were applied to the standard curve equation. Micromoles of inorganic phosphate were calculated to determine the SA of mutant enzymes.
(§3) For each clone, the kinetic assay was performed in duplicates of triplicates. Malachite Geen was used to detect inorganic phosphate. Two separate clones were processed independently of the same mutant. All kinetic data were fit to symmetric sigmoidal curve using Origin software based on methods previously described [[27–29]]. More specifically, for kinetic parameters established via curve fitting (shown in Tables 1–3; and in Figure 5A,B), the equation y = d + (a − d)/1 + (x/c)^b was used where ‘x’ is represented by apparent Michelis constant (Km) when y = Vmax. […] P-values were significant at <0.001 and represent a comparison with the WT enzyme.

pig kidney FBPase Y113A [2] = molecular target: T1, pig kidney FBPase Y113A; experiment: Differential scanning fluorimetry, Y113A mutant; type: binding; details: enzyme Y113A
Method: (§4) Differential scanning fluorimetry (DSF) assays were designed and implemented to run on WT and each mutant for the purpose of determining relative stabilities by melting point, and to detect structural changes in the enzymes upon ligand binding. Thermal shift assays were performed with a Light Cycler 96 System Real-Time PCR machine (Roche) using Sypro-Orange dye (Invitrogen) and thermal ramping (0.25°C per min between 20 and 85°C). […] Data were processed using the Boltzmann equation to generate sigmoidal denaturation curves, and average Tm/ΔTm values were calculated as previously described using GraphPad Prism software package.

pig kidney FBPase M177A = molecular target: T2, pig kidney FBPase M177A (Sus scrofa, UniProt P00636, M178A); experiment: Differential scanning fluorimetry, M177A mutant; type: binding; details: enzyme M177A
T2 construct: His6 (C); made in house; host or cells: Escherichia coli BL21 (DE3)
T2 sequence (P00636 1-338 M178A): T1 sequence (P00636 1-338 Y114A) with A114Y, M178A
Method: as §4

pig kidney FBPase WT [3] = molecular target: T3, pig kidney FBPase WT (Sus scrofa, UniProt P00636); experiment: Differential scanning fluorimetry, WT enzyme; type: binding; details: enzyme WT
T3 construct: His6 (C); made in house; host or cells: Escherichia coli BL21 (DE3)
T3 sequence (P00636 1-338): T1 sequence (P00636 1-338 Y114A) with A114Y
Method: as §4

pig kidney FBPase L73A = molecular target: T4, pig kidney FBPase L73A (Sus scrofa, UniProt P00636, L74A); experiment: Malachite Green kinetic assay, L73A mutant; type: biochemical; details: enzyme L73A; for IC50: FBP substrate 10 to 50 µM
T4 construct: His6 (C); made in house; host or cells: Escherichia coli BL21 (DE3)
T4 sequence (P00636 1-338 L74A): T1 sequence (P00636 1-338 Y114A) with L74A, A114Y
Method: as §1, §2, §3

pig kidney FBPase WT [4] = molecular target: T3, pig kidney FBPase WT; experiment: Malachite Green kinetic assay, WT enzyme; type: biochemical; details: for IC50: FBP substrate 10 to 50 µM
Method: as §1, §2, §3

[5] = association (binding) constant from saturation curve

SMILES: [Mg+2] [Mg^2+, magnesium]
- Ka (pig kidney FBPase Y113A [1]; enzyme Y113A, association (binding) constant from saturation curve): 0.48 (± 0.16) mM
- Hill coefficient (pig kidney FBPase Y113A [1]; enzyme Y113A, for magnesium): 2.00 (± 0.19)
- melting point of enzyme with Mg^2+ ([…]) (pig kidney FBPase Y113A [2]; Mg^2+ […]): 52.0 (± 1.50) °C
- melting point of enzyme with Mg^2+ ([…]) (pig kidney FBPase M177A; Mg^2+ […]): 55.8 (± 1.75) °C
- melting point of enzyme with Mg^2+ ([…]) (pig kidney FBPase WT [3]; Mg^2+ […]): 50.0 (± 1.25) °C
- Ka (pig kidney FBPase L73A; [5]): 0.48 (± 0.17) mM
- Hill coefficient (pig kidney FBPase L73A; for magnesium): 2.95 (± 0.17)
- Ka (pig kidney FBPase WT [4]; [5]): 0.50 (± 0.18) mM
- Hill coefficient (pig kidney FBPase WT [4]; for magnesium): 2.10 (± 0.15)

SMILES: O=P(O)(O)OC[C@H]1O[C@@](CO)(OP(=O)(O)O)[C@@H](O)[C@@H]1O [F2,6-BP, fructose-2,6-bisphosphate]
- Ki (pig kidney FBPase Y113A [1]; enzyme Y113A): 0.25 µM
- IC50 (pig kidney FBPase Y113A [1]; enzyme Y113A_1): 1.8 µM
- IC50 (pig kidney FBPase Y113A [1]; enzyme Y113A_2): 1.7 µM
- Ki (pig kidney FBPase L73A): 1.35 µM
- IC50 (pig kidney FBPase L73A): 7.25 µM
- Ki (pig kidney FBPase WT [4]): 0.25 µM
- IC50 (pig kidney FBPase WT [4]): 1.5 µM

SMILES: Nc1ncnc2c1ncn2[C@@H]1O[C@H](COP(=O)(O)O)[C@@H](O)[C@H]1O [AMP]
- IC50 (pig kidney FBPase Y113A [1]; enzyme Y113A_1): 48.6 µM
- IC50 (pig kidney FBPase Y113A [1]; enzyme Y113A_2): 55.3 µM
- reduction in melting temperature, presence of AMP vs absence of ligand (pig kidney FBPase Y113A [2]): 5–9 °
- melting point of enzyme with AMP (100 µM) (pig kidney FBPase Y113A [2]; AMP 100 µM): 45.0 (± 1.25) °C
- melting point of enzyme with AMP (100 µM) (pig kidney FBPase M177A; AMP 100 µM): 54.1 (± 1.25) °C
- melting point of enzyme with AMP (100 µM) (pig kidney FBPase WT [3]; AMP 100 µM): 59.0 (± 1.75) °C
- AMP Hill coefficient (pig kidney FBPase L73A): 2.1 (± 0.2)
- IC50 (pig kidney FBPase L73A): 6.95 µM
- AMP Hill coefficient (pig kidney FBPase WT [4]): 2.2 (± 0.1)
- IC50 (pig kidney FBPase WT [4]): 7.5 µM
